PMC10154330, “Machine learning-driven multifunctional peptide engineering for sustained ocular drug delivery” (Nature Communications, 2023)
Converted amounts (≈) assume the structure as drawn. Ends that are not written are not given here.

Legend:
[1] = Ocular safety evaluation / ocular grading after ICM injection; details: rabbit, in vivo
Description: (§1) For the IOP measurements in normotensive rabbits, Dutch Belted rabbits (2–3 kg) were used (n = 5). IOP was measured with a hand-held rebound tonometer icareTONOVET (Vantaa, Finland) in the awake and gently restrained rabbit. Each rabbit was acclimatized to the IOP measurement procedure for at least 5 days to obtain a stable background IOP reading. A mean of three IOP measurements for an individual eye were taken every other day for 6 days (3 times in total) and used as a baseline value. For the ICM injection procedure, rabbits were anesthetized with ketamine/xylazine and received topical anesthesia with 0.5% proparacaine hydrochloride. A corneal pre-puncture was performed with a 30 G needle, followed with a single bolus ICM injection of 200 µg (mass of brimonidine) of HR97-brimonidine or brimonidine tartrate solution in 100 µL saline using a 28 G needle. After the procedure, topical bacitracin-neomycin-polymyxin ophthalmic ointment was applied to both eyes to prevent infection and dry eyes. On day 7, an ophthalmologist masked to treatment evaluate the HR97-brimonidine injected eyes with the following items: functionality of lids, lashes, conjunctiva, cornea transparency, pigmentation of corneal endothelium, depth of anterior chambers, inflammation, fibrin strands, and symmetry of the lens[113]. […] In a separate study, a corneal pre-puncture was performed with a 30 G needle, followed with a single bolus ICM injection of 200 µg (mass of brimonidine) containing a physical mixture of unconjugated HR97 and brimonidine tartrate (HR97 + brimonidine), the equivalent amount of HR97 peptide alone, or saline alone in 100 µL saline. On day 7, day 14, day 21, and day 28, an ophthalmologist masked to treatment performed the same safety evaluations described above. IOP was measured on days 2, 3, 4, 5, 6, 7, 8, 10, 12, 14, 16, 18, and 20 after the ICM injection, and change in IOP from the baseline (ΔIOP) was reported. The mean of three IOP measurements was taken for each eye by one observer, and then confirmed by a masked observer. Alternatively, a single topical eye drop (Alphagan® P 0.1%, 50 µL) was given (n = 5). The IOP were measured immediately before the topical dosing (0 h), and at 2, 4, 6 and 8 h after the eyedrop administration. For the pharmacokinetics studies, rabbits (n = 4 per group) received a single ICM injection with 200 µg (mass of brimonidine) HR97-brimonidine as described above. Rabbits were sacrificed 1, 7, 14, 28 days after the injection, and iris, aqueous, and retina were collected for measuring the brimonidine concentration.

[2] = test system: human cathepsins B, K, L, and S; test: in vitro; details: isolated enzyme cathepsin other, pH 5.5, cathepsin cleavage assay
[3] = test system: ARPE-19 cells; test: Cell viability assay of HR97 peptide (PrestoBlue HS); type: cell-based, human; details: concentrations up to 5 mg/mL, 12 h incubation, n = 5
Description: The PrestoBlue^TM HS cell viability system was used to assess cell viability. ARPE-19 cells were seeded at 0.01 × 10^6 cells/well in 96 well plates and cultured with DMEM:F12 medium containing 10% FBS according to the vendor protocol. After 7 days, 90 µL of DMEM/F12 containing 0, 1, 5, 10, or 20 mg/mL of the HR97 was added. The cells (n = 5) were then incubated for 12 h, and viability was measured by adding 10 µL of PrestoBlue^TM HS cell viability reagents at 37 °C. After 0.5, 1, 2, 3, 4 and 5 h, absorbance (570 nm and 600 nm) was measured at 37 °C and normalized according to the protocol provided by the vendor.

[4] = test system: melanin nanoparticles (mNPs); test: Relative binding of drugs to mNPs; set-up: species or system Sepia officinalis
Text: (§2) Supplementary Fig. 1 | Characterization of melanin nanoparticles (mNPs) and biotinylated-melanin
(§3) nanoparticles (b-mNPs). a Representative transmission electron microscopes (TEM) images of mNPs and b-
(§4) (black dots, n = 3 per drug group) and b-mNPs (gray squares, n = 3 per drug group). Data are shown as mean ±
(§5) (1 picture or pasted object on this page, not shown here)

[5] = test system: biotinylated melanin nanoparticles (b-mNPs); test: Relative binding of drugs to b-mNPs; set-up: species or system Sepia officinalis
Text: as §2, §3, §4, §5

[6] = ref 3 of the peer review file, Acheampong et al. 2002; cited from earlier work
Text: 1.5 Brimonidine is applied as eye drops three times per day. […] Why is that? What is the required free brimonidine concentration for activity?

[7] = test system: intraocular pressure; test: IOP measurement in normotensive Dutch Belted rabbits; type: in vivo; details: for cumulative IOP change: Brimonidine group
Description: as §1

[8] = test system: melanin nanoparticles (mNPs); test: In vitro melanin binding assay (binding capacity and Kd, RED device, HPLC); set-up: species or system Sepia officinalis; details: binding capacity and dissociation constant of ocular drugs, melanin
Description: The solutions (400 µL) were then mixed thoroughly with 400 µL of 1 mg/mL mNPs in pH 6.5 PBS solution and transferred to the inner reservoir of the rapid equilibrium dialysis (RED) device inserts (8 K MWCO). The outer reservoir was filled with 800 µL of pH 6.5 PBS solution. The samples were incubated on an orbital shaker with temperature control at 37 °C and 300 rpm for 48 h (n = 3). The solutions from outer reservoir (free drug) were than collected and transferred to an autosampler vial for HPLC analysis (Prominence LC2030, Shimadzu, Columbia, MD) with photodiode-array detection (PDA) system. […] The amount of bound drug was used to calculate the binding capacity (mol drug/mg melanin) and the dissociation constant (Kd) as previously described[20],[34].

[9] = Brimonidine in ocular tissues after ICM injection (LC-MS/MS)
Description: as §1
Brimonidine concentrations in ocular tissues were measured by liquid chromatography-tandem mass spectrometry (LC-MS/MS) as previously described. All samples were collected in pre-weighed tubes and stored at −80 °C until processing for analysis. Tissue samples were homogenized in 100–600 μL 1 × PBS using a Bullet Blender® (Next Advance, Inc, Troy, NY, USA) before extraction. Brimonidine were extracted from 15 to 50 μL of tissue homogenates with 50 μL of acetonitrile containing 50/50/2.5 ng/mL of the internal standards. The top layer was then transferred to an autosampler vial for LC-MS/MS analysis after centrifugation. All ocular tissue samples were analyzed using a 1 × PBS standard curve for brimonidine. […] The column effluent was monitored using a 5500 mass-spectrometric detector (Sciex) using electrospray ionization operating in positive mode. The mobile phase A was water containing 0.1% formic acid and mobile phase B was acetonitrile containing 0.1% formic acid. The gradient started with mobile phase B held at 20% for 0.5 min and increased to 100% over 0.5 min; 100% mobile phase B was held for 1 min and then returned to 20% mobile phase B and allowed to equilibrate for 1 min.

[10] = test system: melanin nanoparticles (mNPs); test: Melanin binding assay for machine learning model validation (RED device, biotin quantitation); set-up: species or system Sepia officinalis; details: C-terminal biotinylated peptide 10 µM with mNPs, pH 6.5 PBS, RED 8K device, 24 h, 900 rpm; unbound peptide by fluorescence biotin quantitation; n = 4
Description: The mNPs were mixed with C-terminal biotinylated peptides (10 µM) in pH 6.5 PBS solution and incubated in the rapid equilibrium dialysis (RED) 8 K device for 24 h on an orbital shaker at 900 rpm. A total of 10 µL of the solution from the rapid dialysis reservoir was collected. The concentration of unbound biotinylated peptides was analyzed with the Pierce™ Fluorescence Biotin Quantitation Kit. Four sets of melanin binding assays were performed. Melanin binding was calculated as the difference in free peptide normalized with the starting peptide concentration. Experimental melanin binding values of the 127 peptide candidates were compared with the predicted melanin binding values with the Pearson correlation. Melanin binding predictions larger than 100% were cast to 100% because this was the maximum value in the melanin binding training set.

[11] = test system: melanin-induced ARPE-19 cells; test: Cell-penetration (cell uptake) assay, melanin-induced ARPE-19; type: cell-based, human; details: C-terminal biotinylated peptide 100 µM in pH 6.5 PBS, 6 h, 37 °C, 5 PBS washes, RIPA lysis, fluorescence biotin quantitation, n = 3
Description: Three 96 well plates per ARPE19 cell type group (melanin-induced or non-melanin induced) were seeded at 0.01 × 10^6 cells/well. ARPE-19 cells were either cultured with DMEM:F12 medium containing 10% FBS according to protocol provided by the vendor (non-melanin induced) or cultured in DMEM high glucose, pyruvate media with 250 µM of ferric ammonium citrate[107] for 2 months (melanin-induced)[20]. The expression of melanin was confirmed visually with bright field microscopy and by measuring absorbance at 475 nm (>0.4 arb. units)[20]. Within each plate, 12 wells were randomly selected to quantify the cell numbers with an automated cell counter (Countess 3 Automated Cell Counter, Thermo Fisher) for normalization in the cell uptake study. […] To quantify cell-associated peptides, the cells were lysed with 100 µL of RIPA lysis buffer at 4 °C for 48 h. The concentration of intracellular biotinylated peptides was analyzed with the Pierce™ Fluorescence Biotin Quantitation Kit. The mean intracellular concentration values of the three replicates were then grouped by cell types (melanin-induced or non-melanin induced), and a two-tailed Mann–Whitney U (Wilcoxon rank-sum) test was calculated using the wilcox.test function in R. The intracellular concentration values were also plotted against experimental melanin binding. […]

Molecule: FSGKRRKRKPR [HR97]
- Ocular grading, all 17 items (pupillary light reflex to Meibomian gland function) [1]: All values are zero
- Ocular grading, all other scores of the 17 items [1]: 0
- Ocular grading: Fluorescein staining (area) [1]: 1
- Ocular grading: Fluorescein staining (severity) [1]: 1
- ocular toxicity, ophthalmologist evaluation [1]: no ocular toxicity was observed
- remaining at 48 h, 100 µM [2]: 87.7%
- cytotoxicity in ARPE-19 cells [3]: no sign of cytotoxicity

Molecule: Brc1c(NC2=NCCN2)ccc2nccnc12 [brimonidine]
- Relative binding of drugs to mNPs ([4]; replicate 1 of n = 3): 141.911
- Relative binding of drugs to mNPs ([4]; replicate 2 of n = 3): 83.4707
- Relative binding of drugs to mNPs ([4]; replicate 3 of n = 3): 74.618
- Relative binding of drugs to b-mNPs ([5]; replicate 1 of n = 3): 84.2618
- Relative binding of drugs to b-mNPs ([5]; replicate 2 of n = 3): 102.105
- Relative binding of drugs to b-mNPs ([5]; replicate 3 of n = 3): 167.093
- EC50 in the aqueous humor [6]: 2.9 ng/mL (≈ 9.93 nM)
- cumulative IOP change ([7]; rabbit 1, sex printed Female): 3.583
- cumulative IOP change ([7]; rabbit 2, sex printed Male): -9.917
- cumulative IOP change ([7]; rabbit 3, sex printed Female): 9.167
- cumulative IOP change ([7]; rabbit 4, sex printed Male): 13.75
- cumulative IOP change ([7]; rabbit 5, sex printed Female): 2.667
- peak ΔIOP at 2 days ([7]; single ICM injection, 200 µg brimonidine equivalent, n = 5): −2.6 ± 1.65 mmHg
- time for the mean ΔIOP to return to baseline ([7]; single ICM injection, n = 5 per group): 8 days
- Binding Capacity (mole/mg melanin) [8]: 5e-8 mole/mg melanin
- Kd [8]: 5.27 µM
- brimonidine levels in eye tissues, Iris ([9]; 1 days, sample 1 (Male)): 11376.8
- brimonidine levels in eye tissues, Iris ([9]; 1 days, sample 2 (Male)): 47581.5
- brimonidine levels in eye tissues, Iris ([9]; 1 days, sample 3 (Female)): 23310.4
- brimonidine levels in eye tissues, Iris ([9]; 7 days, sample 1 (Female)): 2210.2
- brimonidine levels in eye tissues, Iris ([9]; 7 days, sample 2 (Female)): 5336.3
- brimonidine levels in eye tissues, Iris ([9]; 7 days, sample 3 (Male)): 10576.6
- brimonidine levels in eye tissues, Iris ([9]; 7 days, sample 4 (Male)): 7554.5
- brimonidine levels in eye tissues, Iris ([9]; 14 days, sample 1 (Female)): 3473.6
- brimonidine levels in eye tissues, Iris ([9]; 14 days, sample 2 (Female)): 5226.5
- brimonidine levels in eye tissues, Iris ([9]; 14 days, sample 3 (Male)): 4493.7
- brimonidine levels in eye tissues, Iris ([9]; 14 days, sample 4 (Male)): 711.1
- brimonidine levels in eye tissues, Iris ([9]; 28 days, sample 1 (Male)): 1400.2
- brimonidine levels in eye tissues, Iris ([9]; 28 days, sample 2 (Male)): 859.9
- brimonidine levels in eye tissues, Iris ([9]; 28 days, sample 3 (Female)): 1137.6
- brimonidine levels in eye tissues, Iris ([9]; 28 days, sample 4 (Female)): 522.1
- brimonidine levels in eye tissues, Retina ([9]; 1 days, sample 1 (Male)): 23.3
- brimonidine levels in eye tissues, Retina ([9]; 1 days, sample 2 (Male)): 64.6
- brimonidine levels in eye tissues, Retina ([9]; 1 days, sample 3 (Female)): 636.9
- brimonidine levels in eye tissues, Retina ([9]; 1 days, sample 4 (Female)): 1138.2
- brimonidine levels in eye tissues, Retina ([9]; 7 days, sample 1 (Female)): 14.2
- brimonidine levels in eye tissues, Retina ([9]; 7 days, sample 2 (Female)): 4.9
- brimonidine levels in eye tissues, Retina ([9]; 7 days, sample 3 (Male)): 125.6
- brimonidine levels in eye tissues, Retina ([9]; 7 days, sample 4 (Male)): 19.8
- brimonidine levels in eye tissues, Retina ([9]; 14 days, sample 1 (Female)): 33.2
- brimonidine levels in eye tissues, Retina ([9]; 14 days, sample 2 (Female)): 7.4
- brimonidine levels in eye tissues, Retina ([9]; 14 days, sample 3 (Male)): 43
- brimonidine levels in eye tissues, Retina ([9]; 14 days, sample 4 (Male)): 14.8
- brimonidine levels in eye tissues, Retina ([9]; 28 days, sample 1 (Male)): 10.7
- brimonidine levels in eye tissues, Retina ([9]; 28 days, sample 2 (Male)): 7.9
- brimonidine levels in eye tissues, Retina ([9]; 28 days, sample 3 (Female)): 8.6
- brimonidine levels in eye tissues, Retina ([9]; 28 days, sample 4 (Female)): 5.8

Molecule: YGRKKRRQRRR [TAT47–57]
- melanin binding (bound fraction) [10]: 77.6 ± 1.5%
- cell uptake (intracellular peptide concentration) [11]: 457.1 ± 34.2 pmol/100 K cells
